# Experimental data reported in PMC6315506 (Viruses, 2018).
# Tests used:
# Conditions in all cases: 10 µM
# HIV-1/LASV pseudovirus = experiment: microbe, parasite or virus in culture; type: cell-based
# HIV-1/H5N1 pseudovirus = experiment: organism not typed; type: cell-based, influenza A virus A/Goose/Qinghai/59/05 (H5N1)
# HIV-1/EBOV pseudovirus = tested on: HIV-1/EBOV pseudovirus
# A549 cells = tested on: A549 cells
SMILES,Inhibition HIV/LASV (HIV-1/LASV pseudovirus),Inhibition HIV/H5N1 (HIV-1/H5N1 pseudovirus),Inhibition HIV/EBOV (HIV-1/EBOV pseudovirus),Cell Viability (A549 cells)
CN(C)Cc1ccc(-c2cc3cc(Br)ccc3nc2OCc2cccc3ccccc23)cc1F [SYL1678],97.25%,93.90%,99.38%,122.25%
CNCCNCc1ccc(-c2cc3cc(Br)ccc3nc2OCc2cccc3ccccc23)cc1 [SYL1679],97.63%,96.95%,99.70%,117.07%
CN(C)Cc1ccc(-c2cc3cc(Br)ccc3nc2OCc2cccc3ccccc23)c(F)c1 [SYL1682],94.69%,78.74%,99.91%,84.09%
C[N+](C)(C)Cc1ccc(-c2cc3cc(Br)ccc3nc2OCc2cccc3ccccc23)cc1.[I-] [SYL1685],93.29%,65.25%,99.90%,103.42%
Brc1ccc2nc(OCc3cccc4ccccc34)c(-c3ccc(N4CCCC4)cc3)cc2c1 [SYL1686],90.35%,65.78%,99.92%,82.03%
CN1CCN(c2ccc(-c3cc4cc(Br)ccc4nc3OCc3cccc4ccccc34)cn2)CC1 [SYL1687],88.94%,31.90%,99.94%,78.11%
CN(C)CCN1CCN(Cc2ccc(-c3cc4cc(Br)ccc4nc3OCc3cccc4ccccc34)cc2)CC1 [SYL1688],88.12%,91.36%,99.92%,80.00%
COc1nc2ccc(Br)cc2cc1-c1ccc(CN(C)C)cc1 [SYL1689],88.23%,97.51%,99.94%,78.79%
CN(C)Cc1ccc(-c2cc3cc(Br)ccc3nc2OCc2ccc(-c3ccccc3)cc2)cc1 [SYL1690],86.95%,98.15%,99.85%,80.30%
Brc1ccc2nc(OCc3cccc4ccccc34)c(-c3ccc(Cn4ccnc4)cc3)cc2c1 [SYL1691],57.43%,97.25%,92.17%,72.14%
CN(C)c1ncc2cc(-c3cc4cc(Br)ccc4nc3OCc3cccc4ccccc34)ccc2n1 [SYL1692],11.86%,-2.23%,48.65%,87.98%
CN(C)Cc1ccc(-c2cc3cc(Br)ccc3nc2OCc2c(F)cccc2F)cc1 [SYL1693],99.04%,97.66%,99.59%,3.19%
CN(C)Cc1ccc(-c2cc3cc(Br)ccc3nc2OCc2ccncc2)cc1 [SYL1696],98.53%,97.45%,99.25%,26.82%
Brc1ccc2nc(OCc3cccc4ccccc34)c(-c3ccc(CN4CCN(Cc5ccccc5)CC4)cc3)cc2c1 [SYL1697],15.89%,-5.87%,67.57%,90.86%
CN(C)Cc1ccc(-c2cc3cc(Br)ccc3nc2Oc2ccc(OCc3ccccc3)cc2)cc1 [SYL1698],98.80%,97.44%,99.64%,107.16%
CN(C)Cc1ccc(-c2cc3cc(Br)ccc3nc2SCc2ccccc2)cc1 [SYL1699],93.73%,94.56%,99.94%,105.32%
CN(C)Cc1ccc(-c2cc3ccccc3nc2OCc2cccc3ccccc23)cc1 [SYL1701],97.96%,98.51%,99.94%,88.01%
